Article PMC10721329, “Quisinostat is a brain-penetrant radiosensitizer in glioblastoma” (JCI Insight, 2023)
pIC50: −log10 of the molar value. Where “and” joins values, the source holds several entries; their conditions need not be identical. Identical values can stand only once.

What was measured:
Experiment in all cases: CellTiter-Glo dose-response cell viability assay
Type in all cases: cell-based, human
[1] = test system: BT145 patient-derived GSC line
Experimental: (§1) QST (JNJ-26481585) is a second-generation hydroxamic acid harboring remarkable selectivity toward class I HDACs, with a biochemical IC50 of 0.1 nM for HDAC1 ([13]). […] To determine the cytotoxic effects of QST, we performed a dose-titration cell viability assay in 7 patient-derived GSC lines (BT145, GB187, GB239, GB282, GB71, GB82, and GB126) and 1 long-term serum-grown human GBM cell line (U87). Because GBMs display a high degree of intratumoral heterogeneity, we used GSCs derived from both primary and recurrent GBMs that harbored distinct genetic mutations or aberrations, growth rates, MGMT promoter methylation status, and gene expression profiles (Supplemental Figure 1; supplemental material available online with this article; https://doi.org/10.1172/jci.insight.167081DS1). Cell lines were treated with various concentrations of QST (10–1000 nM), and cell viability was measured 3–5 days later (Figure 1, A and B). […] Treatment with QST at the IC50 induced significant inhibition of proliferation (Ki67) and an increase in programmed cell death (cleaved caspase 3) in 2 different GSC lines (Figure 1, C and D). Additional analyses confirmed that QST induces apoptosis after short-term treatment through increased staining of the apoptotic marker annexin V (Figure 2A) and cell cycle arrest (in G2- or S-phase; Figure 2B and Supplemental Figure 1B).
(§2) GSCs were seeded in laminin-coated tissue culture–treated 96-well plates (clear bottom, white plate; Corning) at a density of 1000–5000 cells per well (cell line dependent) in GSC media. U87-MG were seeded using their normal growth conditions without laminin (10% bovine calf serum in DMEM). All cells were incubated at 37°C and allowed to adhere overnight. The next day, cells were treated with incremental concentrations of QST (Selleckchem; 0, 10, 25, 50, 100, 250, 500, and 1000 nM) diluted in media. Cells treated without QST were treated with DMSO diluted in media. Following treatment with QST, cells were grown for 3 to 5 days (cell line dependent), and cell viability was measured and quantified. All cell viability measurements were performed using the CellTiter-Glo luminescent cell viability assay (Promega) following the manufacturer’s instructions. For the sulforhodamine B colorimetric assay for cytotoxicity, the protocol was performed as described elsewhere ([33]). All cell viability results represent the mean of at least 3 biological replicates, each containing 3 technical replicates.

[2] = test system: GB126 patient-derived GSC line
Experimental: as §1, §2

[3] = test system: GB239 patient-derived GSC line
Experimental: as §1, §2

[4] = test system: GB282 patient-derived GSC line; details: GB282xTdT
Experimental: as §1, §2

Cn1cc(CNCC2CCN(c3ncc(C(=O)NO)cn3)CC2)c2ccccc21 [QST, quisinostat]
pIC50 ([1]; Homo sapiens, 3-5 days): 7.12 | viability at 0.01 µM ([1]; Homo sapiens, QST 10 nM (log[nM] 1), no IR, read-out: Cell viability (fraction of DMSO control)): 70% | viability at 0.025 µM ([1]; Homo sapiens, QST 25 nM (log[nM] 1.39794), no IR, read-out: Cell viability (fraction of DMSO control)): 64% | viability at 0.05 µM ([1]; Homo sapiens, QST 50 nM (log[nM] 1.69897), no IR, read-out: Cell viability (fraction of DMSO control)): 40% | viability at 0.1 µM ([1]; Homo sapiens, QST 100 nM (log[nM] 2), no IR, read-out: Cell viability (fraction of DMSO control)): 34.2% | viability at 0.25 µM ([1]; Homo sapiens, QST 250 nM (log[nM] 2.39794), no IR, read-out: Cell viability (fraction of DMSO control)): 25.7% | viability at 0.5 µM ([1]; Homo sapiens, QST 500 nM (log[nM] 2.69897), no IR, read-out: Cell viability (fraction of DMSO control)): 18.6% | viability at 1 µM ([1]; Homo sapiens, QST 1000 nM (log[nM] 3), no IR, read-out: Cell viability (fraction of DMSO control)): 13% | Cell viability (fraction of DMSO control) ([1]; QST 10 nM (log[nM] 1), no IR): 0.7896 and 0.7644 | Cell viability (fraction of DMSO control) ([1]; QST 25 nM (log[nM] 1.39794), no IR): 0.7548 and 0.7039 | Cell viability (fraction of DMSO control) ([1]; QST 50 nM (log[nM] 1.69897), no IR): 0.4986 and 0.5266 | Cell viability (fraction of DMSO control) ([1]; QST 100 nM (log[nM] 2), no IR): 0.3524 and 0.2775 | Cell viability (fraction of DMSO control) ([1]; QST 250 nM (log[nM] 2.39794), no IR): 0.3528 and 0.3396 | Cell viability (fraction of DMSO control) ([1]; QST 500 nM (log[nM] 2.69897), no IR): 0.2416 and 0.229 | Cell viability (fraction of DMSO control) ([1]; QST 1000 nM (log[nM] 3), no IR): 0.1715 | Cell viability (fraction of DMSO control) ([2]; GB126 (GB126xTdT), QST 10 nM (log[nM] 1), no IR): 0.8102 and 0.8005 | Cell viability (fraction of DMSO control) ([2]; GB126 (GB126xTdT), QST 25 nM (log[nM] 1.39794), no IR): 0.6353 and 0.6191 | Cell viability (fraction of DMSO control) ([2]; GB126 (GB126xTdT), QST 50 nM (log[nM] 1.69897), no IR): 0.4839 and 0.5154 | Cell viability (fraction of DMSO control) ([2]; GB126 (GB126xTdT), QST 100 nM (log[nM] 2), no IR): 0.3119 and 0.4774 | viability at 0.01 µM ([2]; Homo sapiens, GB126 (GB126xTdT), QST 10 nM (log[nM] 1), no IR, read-out: Cell viability (fraction of DMSO control)): 79.2% | viability at 0.025 µM ([2]; Homo sapiens, GB126 (GB126xTdT), QST 25 nM (log[nM] 1.39794), no IR, read-out: Cell viability (fraction of DMSO control)): 66.8% | viability at 0.05 µM ([2]; Homo sapiens, GB126 (GB126xTdT), QST 50 nM (log[nM] 1.69897), no IR, read-out: Cell viability (fraction of DMSO control)): 57.6% | viability at 0.1 µM ([2]; Homo sapiens, GB126 (GB126xTdT), QST 100 nM (log[nM] 2), no IR, read-out: Cell viability (fraction of DMSO control)): 44.3% | pIC50 ([2]; Homo sapiens, GB126, 3-5 days): 7.07 | Cell viability (fraction of DMSO control) ([3]; GB239x3, QST 10 nM (log[nM] 1)): 0.8159 and 0.818 | Cell viability (fraction of DMSO control) ([3]; GB239x3, QST 25 nM (log[nM] 1.39794)): 0.6846 and 0.6788 | Cell viability (fraction of DMSO control) ([3]; GB239x3, QST 50 nM (log[nM] 1.69897)): 0.5694 and 0.5366 | Cell viability (fraction of DMSO control) ([3]; GB239x3, QST 100 nM (log[nM] 2)): 0.3389 and 0.3234 | Cell viability (fraction of DMSO control) ([3]; GB239x3, QST 250 nM (log[nM] 2.39794)): 0.1954 and 0.198 | Cell viability (fraction of DMSO control) ([3]; GB239x3, QST 500 nM (log[nM] 2.69897)): 0.1408 and 0.1494 | Cell viability (fraction of DMSO control) ([3]; GB239x3, QST 1000 nM (log[nM] 3)): 0.1055 and 0.1137 | viability at 0.01 µM ([3]; Homo sapiens, GB239x3, QST 10 nM (log[nM] 1), read-out: Cell viability (fraction of DMSO control)): 79.7% | viability at 0.025 µM ([3]; Homo sapiens, GB239x3, QST 25 nM (log[nM] 1.39794), read-out: Cell viability (fraction of DMSO control)): 64% | viability at 0.05 µM ([3]; Homo sapiens, GB239x3, QST 50 nM (log[nM] 1.69897), read-out: Cell viability (fraction of DMSO control)): 46.2% | viability at 0.1 µM ([3]; Homo sapiens, GB239x3, QST 100 nM (log[nM] 2), read-out: Cell viability (fraction of DMSO control)): 26% | viability at 0.25 µM ([3]; Homo sapiens, GB239x3, QST 250 nM (log[nM] 2.39794), read-out: Cell viability (fraction of DMSO control)): 15.6% | viability at 0.5 µM ([3]; Homo sapiens, GB239x3, QST 500 nM (log[nM] 2.69897), read-out: Cell viability (fraction of DMSO control)): 11.2% | viability at 1 µM ([3]; Homo sapiens, GB239x3, QST 1000 nM (log[nM] 3), read-out: Cell viability (fraction of DMSO control)): 8.92% | pIC50 ([3]; Homo sapiens, GB239, 3-5 days): 7.39 | Cell viability (fraction of DMSO control) ([4]; QST 10 nM (log[nM] 1)): 0.8875 and 0.8957 | Cell viability (fraction of DMSO control) ([4]; QST 25 nM (log[nM] 1.39794)): 0.7531 and 0.7488 | Cell viability (fraction of DMSO control) ([4]; QST 50 nM (log[nM] 1.69897)): 0.6063 and 0.5741 | Cell viability (fraction of DMSO control) ([4]; QST 100 nM (log[nM] 2)): 0.3901 and 0.3391 | Cell viability (fraction of DMSO control) ([4]; QST 250 nM (log[nM] 2.39794)): 0.1846 and 0.1521 | Cell viability (fraction of DMSO control) ([4]; QST 500 nM (log[nM] 2.69897)): 0.1138 and 0.08263 | Cell viability (fraction of DMSO control) ([4]; QST 1000 nM (log[nM] 3)): 0.07483 and 0.05455 | viability at 0.01 µM ([4]; Homo sapiens, QST 10 nM (log[nM] 1), read-out: Cell viability (fraction of DMSO control)): 98.4% | viability at 0.025 µM ([4]; Homo sapiens, QST 25 nM (log[nM] 1.39794), read-out: Cell viability (fraction of DMSO control)): 84.2% | viability at 0.05 µM ([4]; Homo sapiens, QST 50 nM (log[nM] 1.69897), read-out: Cell viability (fraction of DMSO control)): 68%
